Measurements taken from patent publication US20250154138A1, “Small Molecule IL-17A Modulators” (BeiGene, Ltd., priority 2022, published 2025).

Tests used:
[1] = test system: IL-17-induced GROα secretion from HT-29 cells; experiment: GROα release assay in human colorectal adenocarcinoma epithelial cell (HT-29, ELISA); assay type: cell-based; settings: Homo sapiens, HT-29, 48 h, 10 ng/mL IL-17A, highest concentration 10 μM, read-out: Cellular assay HT29 cell/CXCL1 IC50
Description: The purpose of the assay is to test the ability of a compound to neutralize IL17A proteins. IL17 can stimulate human epithelial cells to secrete GROα. The ability of one compound of the invention to neutralize IL-17-induced GROα secretion from the human colorectal adenocarcinoma epithelia cell line HT-29 is tested in this assay.
HT-29 cells (human colorectal adenocarcinoma epithelia cell, ATCC) were stimulated with IL-17A (Novoprotein, #C774) in final concentration of 10 ng/mL. The resultant GROα response was measured using an ELISA kit from Invitrogen (#88-52122). HT-29 cells were cultured in complete medium (McCoy's 5A medium+10% FBS) and maintained in a tissue culture flask using standard techniques. On day 1, detached the cell by using TrypLE (Gibco, #12605036) and used the complete medium to neutralize. The cells were centrifuged at 11,00 rmp for 4 minutes. Re-suspended the cell pellet in complete medium and seeded 50,000 HT-29 cells into the 96-well assay plate (Corning, 3599) at 135 μL complete medium per well. The cells were incubated for overnight, at 37° C./5% CO2 to adherent the plate. On day 2, prepared a 4-fold serial dilution of the tested compound in DMSO. The highest concentration of the compound was 10 μM. Transferred 2 μL of the serial diluted compound from the serial dilution plate into the reagent plate which was contained 198 μL complete medium with 100 ng/mL IL-17A per well. The compounds were incubated with the IL-17A for 15 minutes. 15 μL mixtures from reagent plate were transferred into the cell assay plate. Incubated the plate at 37° C./5% CO2 for 48 hours. After the incubation, on day 4, GROα level were measured with GROα ELISA as the manufacturer's instructions. 50 μL supernatant was collected form the assay plate to ELISA plate. ELISA plate was read at 450 nm on a microplate reader and compared to a standard calibration curve.
Data were processed using GraphPad Prism. GROα concentration was calculated from the standard curve. IC50 was determined using the equation log concentration (inhibitor) against response and fitted to four parameters.

[2] = biological target: human IL-17A / human IL-17RA (Homo sapiens (Human), UniProt Q16552); experiment: Human IL-17A biochemical assay (HTRF, blocking of IL-17A binding to IL-17RA); settings: 0.4 nM IL-17A, 0.3 nM IL-17RA, max compound concentration 10 uM
Sequence of human IL-17A / human IL-17RA (Q16552 24-155): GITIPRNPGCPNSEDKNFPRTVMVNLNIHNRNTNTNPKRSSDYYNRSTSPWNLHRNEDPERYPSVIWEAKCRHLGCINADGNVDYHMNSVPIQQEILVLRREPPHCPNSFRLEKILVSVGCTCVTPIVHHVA
How it was run: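 0.4 nM hIL-17A + cpd (10 uM top, 2.7x, 10 pt), 3 h RT, HEPES pH 7.5 buffer w/ BSA, DTT, Tween 20; + 0.3 nM hIL-17RA 1 h RT; Tb/XL665 Abs 1 h; HTRF 620/665 ratio; 4PL IC50.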

Question: `CC1CN(C2(C(=O)O)Cc3ccc(NC(=O)[C@@H](NC(=O)c4ccnn4C)C4CCCCC4)cc3C2)C(=O)N1` (stereo partly drawn) [Example 23, 5-((S)-2-cyclohexyl-2-(1-methyl-1H-pyrazole-5-carboxamido)acetamido)-2-(4-methyl-2-oxoimidazolidin-1-yl)-2,3-dihydro-1H-indene-2-carboxylic acid] was tested. Which IC50 [1] did it give?
Answer: Its IC50 is 3660 nM.

Question: What about the IC50 [2] of the same compound?
Answer: The IC50 was 640 nM.

Question: How did the IC50 [1] turn out when `[2H]C([2H])([2H])NC(=O)C1(N2C[C@@H](C(C)C)NC2=O)Cc2ccc(NC(=O)[C@@H](NC(=O)c3ccnn3C)C3CCCCCC3)cc2C1` (stereo partly drawn) [Example 82, N-((1S)-1-cycloheptyl-2-((2-((R)-4-isopropyl-2-oxoimidazolidin-1-yl)-2-((methyl-d3)carbamoyl)-2,3-dihydro-1H-inden-5-yl)amino)-2-oxoethyl)-1-methyl-1H-pyrazole-5-carboxamide] was run?
Answer: The IC50 was 156 nM.

Question: What about the IC50 [2] of the same compound?
Answer: The IC50 was 32 nM.

Question: Which IC50 [1] does the source give for `CCC1CCC(C(NC(=O)c2ccnn2C)C(=O)Nc2ccc3c(c2)CC(C(=O)NC)(N2CC4(CCC4)CNC2=O)C3)CC1` (stereo not drawn) [Example 125, N-(1-(4-ethylcyclohexyl)-2-((2-(methylcarbamoyl)-2-(7-oxo-6,8-diazaspiro[3.5]nonan-6-yl)-2,3-dihydro-1H-inden-5-yl)amino)-2-oxoethyl)-1-methyl-1H-pyrazole-5-carboxamide] here?
Answer: Its IC50 is 25.8 nM.

Question: And the IC50 [2]?
Answer: Its IC50 is 5.6 nM.

Question: Which IC50 [1] does the source give for `Cc1nonc1C(=O)N[C@H](C(=O)Nc1ccc2c(c1)CC(C(=O)NC1CCC(F)(F)C1)(N1CC3(CC3)CNC1=O)C2)C1CCC(F)(F)CC1` (stereo partly drawn) [Example 190, N-((1S)-1-(4,4-difluorocyclohexyl)-2-((2-((3,3-difluorocyclopentyl)carbamoyl)-2-(6-oxo-5,7-diazaspiro[2.5]octan-5-yl)-2,3-dihydro-1H-inden-5-yl)amino)-2-oxoethyl)-4-methyl-1,2,5-oxadiazole-3-carboxamide] here?
Answer: The IC50 was 139 nM.

Question: And the IC50 [2]?
Answer: Its IC50 is 87.1 nM.

Question: For `COCC1(N2CC3(CC3)CNC2=O)Cc2ccc(NC(=O)[C@@H](NC(=O)c3ccnn3C)C(C3CC3)C3CC3)cc2C1` (stereo partly drawn) [Example 159, N-((2S)-1,1-dicyclopropyl-3-((2-(methoxymethyl)-2-(6-oxo-5,7-diazaspiro[2.5]octan-5-yl)-2,3-dihydro-1H-inden-5-yl)amino)-3-oxopropan-2-yl)-1-methyl-1H-pyrazole-5-carboxamide], which IC50 [1] is on record?
Answer: Its IC50 is 187 nM.

Question: What about the IC50 [2] of the same compound?
Answer: The IC50 was 53.2 nM.

Question: With `CNC(=O)C1(N2CC(C)(C)NC2=O)Cc2ccc(NC(=O)[C@@H](NC(=O)c3ccnn3C)C3CCCCC3)cc2C1` (stereo partly drawn) [Example 20, N-((1S)-1-cyclohexyl-2-((2-(4,4-dimethyl-2-oxoimidazolidin-1-yl)-2-(methylcarbamoyl)-2,3-dihydro-1H-inden-5-yl)amino)-2-oxoethyl)-1-methyl-1H-pyrazole-5-carboxamide] as the compound, how does the IC50 [1] read?
Answer: The IC50 was 476 nM.

Question: And the IC50 [2]?
Answer: The IC50 was 980 nM.

Question: With `CNC(=O)C1(N2C[C@@H](Cc3ccc(C)cc3)NC2=O)Cc2ccc(NC(=O)[C@@H](NC(=O)c3ccnn3C)C3CCCCC3)cc2C1` (stereo partly drawn) [Example 62, N-((1S)-1-cyclohexyl-2-((2-((R)-4-(4-methylbenzyl)-2-oxoimidazolidin-1-yl)-2-(methylcarbamoyl)-2,3-dihydro-1H-inden-5-yl)amino)-2-oxoethyl)-1-methyl-1H-pyrazole-5-carboxamide] as the compound, how does the IC50 [1] read?
Answer: The IC50 was 212 nM.

Question: What about the IC50 [2] of the same compound?
Answer: Its IC50 is 24 nM.

Question: With `CNC(=O)C1(N2C[C@@H](C(C)C)NC2=O)Cc2ccc(NC(=O)C(NC(=O)c3ccnn3C)C3CCC4(CC3)CC4)cc2C1` (stereo partly drawn) [Example 112, N-(2-((2-((R)-4-isopropyl-2-oxoimidazolidin-1-yl)-2-(methylcarbamoyl)-2,3-dihydro-1H-inden-5-yl)amino)-2-oxo-1-(spiro[2.5]octan-6-yl)ethyl)-1-methyl-1H-pyrazole-5-carboxamide] as the compound, how does the IC50 [1] read?
Answer: The IC50 was 181 nM.

Question: And the IC50 [2]?
Answer: The IC50 was 41 nM.

Question: How did the IC50 [1] turn out when `CNC(=O)C1(N2CC3(CC3)CNC2=O)Cc2ccc(NC(=O)[C@@H](NC(=O)c3ccnn3C3CC(O)C3)C3CCCCC3)cc2C1` (stereo partly drawn) [Example 132, N-((1S)-1-cyclohexyl-2-((2-(methylcarbamoyl)-2-(6-oxo-5,7-diazaspiro[2.5]octan-5-yl)-2,3-dihydro-1H-inden-5-yl)amino)-2-oxoethyl)-1-(3-hydroxycyclobutyl)-1H-pyrazole-5-carboxamide] was run?
Answer: The IC50 was 178 nM.

Question: And the IC50 [2]?
Answer: Its IC50 is 66 nM.

Question: `CC(C)[C@@H]1CN(C2(C(=O)NC34CC5CC(CC(C5)C3)C4)Cc3ccc(NC(=O)[C@@H](NC(=O)c4ccnn4C)C4CCCCC4)cc3C2)C(=O)N1` (stereo partly drawn) [Example 155, N-((1S)-2-((2-(((3R,5R)-adamantan-1-yl)carbamoyl)-2-((R)-4-isopropyl-2-oxoimidazolidin-1-yl)-2,3-dihydro-1H-inden-5-yl)amino)-1-cyclohexyl-2-oxoethyl)-1-methyl-1H-pyrazole-5-carboxamide] was tested. Which IC50 [1] did it give?
Answer: The IC50 was 211 nM.

Question: What about the IC50 [2] of the same compound?
Answer: The IC50 was 129 nM.

Question: How did the IC50 [1] turn out when `CC[C@@H]1CN(C2(C(=O)NC)Cc3cc4nc([C@@H](NC(=O)c5ccnn5C)C5CCCCC5)[nH]c4cc3C2)C(=O)N1` [Example 31, 2-((S)-cyclohexyl(1-methyl-1H-pyrazole-5-carboxamido)methyl)-6-((R)-4-ethyl-2-oxoimidazolidin-1-yl)-N-methyl-1,5,6,7-tetrahydroindeno[5,6-d]imidazole-6-carboxamide] was run?
Answer: Its IC50 is 116 nM.

Question: What about the IC50 [2] of the same compound?
Answer: Its IC50 is 203 nM.

Question: For `Cc1nonc1C(=O)N[C@H](C(=O)Nc1ccc2c(c1)OC(CN1C[C@@H](C(C)C)NC1=O)C2)C(C1CC1)C1CC1` (stereo partly drawn) [Example 271, N-((2S)-1,1-dicyclopropyl-3-((2-(((R)-4-isopropyl-2-oxoimidazolidin-1-yl)methyl)-2,3-dihydrobenzofuran-6-yl)amino)-3-oxopropan-2-yl)-4-methyl-1,2,5-oxadiazole-3-carboxamide], which IC50 [1] is on record?
Answer: Its IC50 is 1380 nM.

Question: What about the IC50 [2] of the same compound?
Answer: The IC50 was 268 nM.

Question: For `Cn1nccc1C(=O)N[C@H](C(=O)Nc1ccc2c(c1)CC(C(=O)O)(N1CC3(CC3)CNC1=O)C2)C1CCCCC1` (stereo partly drawn) [Example 189, 5-((S)-2-cyclohexyl-2-(1-methyl-1H-pyrazole-5-carboxamido)acetamido)-2-(6-oxo-5,7-diazaspiro[2.5]octan-5-yl)-2,3-dihydro-1H-indene-2-carboxylic acid], which IC50 [1] is on record?
Answer: Its IC50 is 124 nM.

Question: What about the IC50 [2] of the same compound?
Answer: Its IC50 is 15.3 nM.

Question: Which IC50 [1] does the source give for `CC(C)[C@@H]1CN(C2(C(=O)NC(CO)C3CCCC3)Cc3ccc(NC(=O)[C@@H](NC(=O)c4ccnn4C)C4CCCCC4)cc3C2)C(=O)N1` (stereo partly drawn) [Example 107, N-((1S)-1-cyclohexyl-2-((2-((1-cyclopentyl-2-hydroxyethyl)carbamoyl)-2-((R)-4-isopropyl-2-oxoimidazolidin-1-yl)-2,3-dihydro-1H-inden-5-yl)amino)-2-oxoethyl)-1-methyl-1H-pyrazole-5-carboxamide] here?
Answer: The IC50 was 34.5 nM.

Question: What about the IC50 [2] of the same compound?
Answer: The IC50 was 25 nM.

Question: How did the IC50 [1] turn out when `CNC(=O)C1(N2CCNC2=O)Cc2ccc(NC(=O)[C@@H](NC(=O)c3ccnn3C)C3CCCCC3)cc2C1` (stereo partly drawn) [Example 13, N-((1S)-1-cyclohexyl-2-((2-(methylcarbamoyl)-2-(2-oxoimidazolidin-1-yl)-2,3-dihydro-1H-inden-5-yl)amino)-2-oxoethyl)-1-methyl-1H-pyrazole-5-carboxamide] was run?
Answer: Its IC50 is 1500 nM.

Question: What about the IC50 [2] of the same compound?
Answer: The IC50 was 1800 nM.

Question: How did the IC50 [1] turn out when `CNC(=O)C1(N2C[C@@H](C(C)C)NC2=O)Cc2ccc(NC(=O)[C@@H](NC(=O)c3cnn(C)c3)C3CCCCC3)cc2C1` (stereo partly drawn) [Example 61, N-((1S)-1-cyclohexyl-2-((2-((R)-4-isopropyl-2-oxoimidazolidin-1-yl)-2-(methylcarbamoyl)-2,3-dihydro-1H-inden-5-yl)amino)-2-oxoethyl)-1-methyl-1H-pyrazole-4-carboxamide] was run?
Answer: The IC50 was 4960 nM.

Question: What about the IC50 [2] of the same compound?
Answer: Its IC50 is 857 nM.

Question: Which results are given for `CNC(=O)C1(N2CC3(CC3)CNC2=O)Cc2ccc(NC(=O)[C@@H](NC(=O)c3ccc(C#N)n3C3CC3)C3CCCCC3)cc2C1` (stereo partly drawn) [Example 157, 5-cyano-N-((1S)-1-cyclohexyl-2-((2-(methylcarbamoyl)-2-(6-oxo-5,7-diazaspiro[2.5]octan-5-yl)-2,3-dihydro-1H-inden-5-yl)amino)-2-oxoethyl)-1-cyclopropyl-1H-pyrrole-2-carboxamide]?
Answer: IC50 [1]: 398 nM; IC50 [2]: 37 nM

Question: How did the IC50 [1] turn out when `CNC(=O)C1(N2C[C@@H](C(C)C)NC2=O)Cc2ccc(NC(=O)[C@@H](NC(=O)c3nonc3C)C3CCC(F)(F)CC3)cc2C1` (stereo partly drawn) [Example 116, N-((1S)-1-(4,4-difluorocyclohexyl)-2-((2-((R)-4-isopropyl-2-oxoimidazolidin-1-yl)-2-(methylcarbamoyl)-2,3-dihydro-1H-inden-5-yl)amino)-2-oxoethyl)-4-methyl-1,2,5-oxadiazole-3-carboxamide] was run?
Answer: The IC50 was 415 nM.

Question: What about the IC50 [2] of the same compound?
Answer: Its IC50 is 69.1 nM.
